From patent US20210145775A1, “Treatment of intestinal barrier dysfunction and associated diseases” (CymaBay Therapeutics, Inc., priority 2019, published 2021)

What was measured:
[1] = tested on: male RAG2−/− mice on C57BL/6 background; test: Preclinical adoptive T-cell transfer colitis; format: in vivo; settings: 10 mg/Kg/day in drinking water, day 14 to day 42
Text: The cell donor animals are male C57BL/6 mice and the recipient animals are male RAG2^−/− mice on C57BL/6 background, aged 6-8 weeks at the start of the study. Recipient animals (20 +12 per test compound) are assigned: 5 to form a control group receiving no cell transfer or treatment, and the remainder to receive cell transfer. At day 0, the donor animals are sacrificed and spleens excised, dissociated to a single cell suspension, and the red blood cells lysed. The cell suspension is enriched for CD4+ T cells using a Miltenyi CD4+ T cell isolation kit, then further enriched for naïve CD4+ T cells using a Miltenyi naïve CD4+ T cell isolation kit. […] The animals are weighed daily and assessed visually for presence and severity of diarrhea and bloody stools, with video endoscopy on days 14, 28, and 42 to assess the severity of the colitis and score stool consistency. All animals are sacrificed at day 42 following endoscopy and samples collected: blood is collected and processed for plasma, the colon is excised, measured, rinsed, weighed, and trimmed to the most distal 5 cm, of this distal and proximal 2 cm portions are placed in formalin for histological evaluation, while the central 1 cm is snap-frozen in liquid nitrogen, and stored for analysis; and the liver is excised, weighed, snap-frozen in liquid nitrogen, and stored for analysis.

[2] = tested on: wild-type female C57BL/6 mice; test: Preclinical Lieber-DeCarli ethanol diet mouse model (alcoholic liver disease / intestinal barrier function); format: in vivo
Text: Age-matched wild-type female C57BL/6 mice (Charles River, Wilmington, Mass.), 8-9 weeks old at the initiation of the study, were used.
The Lieber-DeCarli ethanol diet was originally developed by Charles Lieber and Leonore DeCarli in 1963. This diet allows for the prolonged exposure of ethanol in a rodent model and allows for modification to calories provided by ethanol. […] The caloric intake from ethanol was 0% on day 1, 10% on days 2 and 3, 20% on days 4 and 5, 30% from day 6 until the end of 6 weeks, and 36% for the last 2 weeks, for a total in-life time of eight weeks. The ethanol-fed mice also received one bolus dose of 33% v/v ethanol at 5 g/Kg on the last in-life day. The control diet contained an isocaloric substitution of isomaltose for the ethanol. […] In the prevention portions of the study, including with the control diet, seladelpar was added throughout the entire study period; in the intervention portion of the study, seladelpar was added only for the fifth through eighth weeks. Fresh feces were collected at 7.5 weeks. All mice were sacrificed after eight weeks; the ethanol-fed mice eight hours after the ethanol bolus. At sacrifice, body and liver weight were recorded; and blood/plasma, liver, gallbladder, small and large intestine (wall and contents) and cecum were harvested. Analyses included plasma ALT—to measure […]; hepatic TGs; plasma lipopolysaccharides (LPS)—to measure the extent of bacterial leakage from the intestine into the blood; fecal albumin (FA)—to measure the extent of albumin leakage from the blood into the intestine (feces); and total bile acids, measured by liquid chromatography-mass spectrometry (LC-MS) generally according to the method described in Hartmann et al., “Modulation of the Intestinal Bile Acid/Farnesoid X Receptor/Fibroblast Growth Factor 15 Axis Improves Alcoholic Liver Disease in Mice”, Hepatology, 67(6), 2150-2166 (2018).
The study results are given in the table below: standard errors of the means are in parentheses, n denotes the number of mice measured, and ANOVA denotes the significance value of an ANOVA analysis between groups 3, 4, and 5:
Formalin-fixed liver sections were stained for histological examination with hematoxylin and eosin (H+E).

[3] = molecular target: T1, PPARα (Homo sapiens, UniProt Q07869); settings: cited from earlier work
T1 sequence (Q07869 1-468): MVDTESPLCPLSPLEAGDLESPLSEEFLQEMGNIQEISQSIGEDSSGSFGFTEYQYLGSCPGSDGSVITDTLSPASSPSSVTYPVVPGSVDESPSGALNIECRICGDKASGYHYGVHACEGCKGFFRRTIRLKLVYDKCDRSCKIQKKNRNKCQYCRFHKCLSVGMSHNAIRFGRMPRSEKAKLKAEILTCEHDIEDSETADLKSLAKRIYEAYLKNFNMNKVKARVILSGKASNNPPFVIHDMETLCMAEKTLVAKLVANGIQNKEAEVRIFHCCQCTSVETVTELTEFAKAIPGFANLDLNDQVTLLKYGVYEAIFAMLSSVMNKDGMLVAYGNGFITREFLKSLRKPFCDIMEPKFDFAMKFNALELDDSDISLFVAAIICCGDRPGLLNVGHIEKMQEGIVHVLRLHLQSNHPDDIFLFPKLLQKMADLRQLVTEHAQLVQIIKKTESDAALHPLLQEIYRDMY

[4] = tested on: Subjects with diagnosed irritable bowel syndrome (IBS); test: Clinical (oral) treatment of irritable bowel syndrome; format: in vivo, human
Protocol: The subjects keep a health diary in which their symptoms of irritable bowel syndrome are recorded.

[5] = tested on: atherogenic diet-fed obese diabetic (Alms1 mutant (foz/foz)) mice; settings: cited from earlier work
[6] = alcohol diet, groups 4 and 5 vs untreated group 3, ANOVA

For `CCO[C@H](COc1ccc(C(F)(F)F)cc1)CSc1ccc(OCC(=O)O)c(C)c1` [seladelpar], the “colitis (body weight, endoscopic and histologic examination)” value [1] was “ameliorates the colitis”, the “liver histology (H+E)” value ([2]; alcohol diet, prevention and intervention, comparing group 3 with groups 4 and 5) was “significant reduction of steatosis and restoration of a more normal architecture” and the “serum ALT, change versus untreated” value ([2]; alcohol diet, groups 4 and 5 (prevention and intervention) vs untreated group 3, ANOVA) was “significant reductions (improvements)”. The “fecal albumin, change versus untreated” value [2, 6] was “significant reduction (improvement)”, the “hepatic TGs, change versus untreated” value [2, 6] was “significant reductions (improvements)” and the “serum LPS, change versus untreated” value [2, 6] was “significant reductions (improvements)”. The “total bile acids, change versus untreated” value [2, 6] was “significant reductions (improvements)”, the “effect on ALT, hepatic TGs, plasma LPS, FA and total bile acids (any of the above parameters)” value ([2]; control diet groups, seladelpar prevention (group 2 vs group 1)) was “did not significantly affect” and the “liver histology (H+E)” value ([2]; control diet, comparing groups 1 and 2) was “no significant change”. For the same molecule, the “specificity for PPARδ compared with PPARα” value [3] was > 600 fold, the “IBS symptoms recorded in health diary” value ([4]; 2, 5, 10, 20, 50 or 100 mg/day oral for 12 weeks) was “general improvement in their IBS symptoms” and the “improvement of disease (management of IBS, gastrointestinal symptoms)” value ([4]; 2-100 mg/day oral for 12 weeks) was “dose-related improvement in their disease”. For the same molecule, the “NASH pathology (hepatic steatosis, inflammation, fibrosis)” value [5] was “improves NASH pathology”.
